Laboratory results as given in ChEMBL document CHEMBL5365393, “Comprehensive coverage on anti-mycobacterial endeavour reported during 2022” (Eur J Med Chem, 2023).
Values after ≈ are worked out from the molar mass of the structure shown. Values joined by “and” are separate entries in the source; they are usually repeats but may differ in a detail not shown here. Identical values can stand only once. Active and inactive are the calls of the source. No cut-off for these calls is given here.

Experiments:
[1] = test system: Mycobacterium tuberculosis; experiment: Antibacterial activity against Mycobacterium tuberculosis H37Rv assessed as inhibition of bacterial growth; assay type: functional, organism-based
[2] = test system: Mycobacterium tuberculosis; experiment: Antibacterial activity against Mycobacterium tuberculosis H37Rv assessed as bacterial growth inhibition at less than 6.25 ug/ml relative to control; assay type: functional; conditions: read-out: GI
[3] = test system: Mycobacterium tuberculosis; experiment: Antibacterial activity against drug susceptible Mycobacterium tuberculosis H37Rv assessed as inhibition of bacterial growth; assay type: functional
[4] = Cytotoxicity against African green monkey Vero cells assessed as inhibition of cell growth; assay type: toxicity, cell-based; conditions: African green monkey (Chlorocebus sabaeus)
[5] = test system: Mycobacterium tuberculosis; experiment: Antibacterial activity against Mycobacterium tuberculosis H37Rv infected in Macrophage assessed as reduction in bacterial growth; assay type: functional
[6] = Selectivity index, ratio of IC50 for cytotoxicity against African green monkey Vero cells to MIC for antibacterial activity against Mycobacterium tuberculosis H37Rv; assay type: toxicity, cell-based; conditions: read-out: Selectivity Index
[7] = test system: Mycobacterium tuberculosis; experiment: Antibacterial activity against Mycobacterium tuberculosis H37Rv assessed as inhibition of bacterial growth by microplate alamar blue assay; assay type: functional
[8] = Microsomal stability in human liver microsomes assessed as half life at 0.1 uM incubated for 60 mins in presence of NADPH by LC-MS/MS analysis; assay type: ADME, Microsome
[9] = test system: Mycobacterium tuberculosis; experiment: Antibacterial activity against drug-sensitive Mycobacterium tuberculosis assessed as inhibition of bacterial growth; assay type: functional
[10] = test system: Mycobacterium tuberculosis; experiment: Antibacterial activity against Mycobacterium tuberculosis assessed as inhibition of bacterial growth by microplate alamar blue assay; assay type: functional
[11] = Cytotoxicity against human WI-38 cells assessed as inhibition of cell growth by MTT assay; assay type: toxicity, cell-based
[12] = target: T1, Enoyl-[acyl-carrier-protein] reductase [NADH] (Mycobacterium tuberculosis, UniProt P9WGR1); experiment: Inhibition of Mycobacterium tuberculosis InhA
T1 sequence (P9WGR1 whole entry): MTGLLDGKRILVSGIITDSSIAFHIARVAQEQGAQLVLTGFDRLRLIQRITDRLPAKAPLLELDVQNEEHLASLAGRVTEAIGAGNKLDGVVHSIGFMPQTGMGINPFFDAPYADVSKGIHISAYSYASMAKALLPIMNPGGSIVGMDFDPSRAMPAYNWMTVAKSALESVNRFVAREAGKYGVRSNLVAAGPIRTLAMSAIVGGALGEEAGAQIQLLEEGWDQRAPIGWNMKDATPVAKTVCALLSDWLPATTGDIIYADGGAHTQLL

DNA gyrase = DNA gyrase (Escherichia coli, UniProt P0AES4+P0AES6); experiment: Inhibition of Escherichia coli DNA gyrase; assay type: protein-complex assay
[13] = Inhibition of Mycobacterium tuberculosis salicylate synthase using chorismic acid as substrate in presence of MgCl2 by fluorimetric assay
RAW264.7 = experiment: Cytotoxicity against mouse RAW264.7 cells assessed as cell growth inhibition by MTT assay relative to control; assay type: functional
[14] = test system: Mycobacterium tuberculosis; experiment: Antibacterial activity against Mycobacterium tuberculosis H37Rv ATCC 27294 assessed as inhibition of bacterial growth; assay type: functional
[15] = test system: Mycobacterium tuberculosis; experiment: Antibacterial activity against Mycobacterium tuberculosis H37Ra assessed as inhibition of bacterial growth; assay type: functional
Pantothenate synthetase = target: T2, Pantothenate synthetase (Mycobacterium tuberculosis, UniProt P9WIL5); experiment: Inhibition of Mycobacterium tuberculosis H37Ra pantothenate synthetase
T2 sequence (P9WIL5 whole entry): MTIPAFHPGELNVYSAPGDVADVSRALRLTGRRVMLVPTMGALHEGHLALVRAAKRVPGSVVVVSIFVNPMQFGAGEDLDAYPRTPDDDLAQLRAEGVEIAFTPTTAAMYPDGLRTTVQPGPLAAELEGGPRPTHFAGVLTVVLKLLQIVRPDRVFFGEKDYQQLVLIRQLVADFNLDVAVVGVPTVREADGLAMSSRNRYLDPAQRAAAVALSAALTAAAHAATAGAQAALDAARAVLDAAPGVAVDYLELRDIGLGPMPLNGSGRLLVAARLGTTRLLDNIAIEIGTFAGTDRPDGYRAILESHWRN

[16] = test system: Mycobacterium tuberculosis; experiment: Antibacterial activity against Mycobacterium tuberculosis H37Rv assessed as inhibition of bacterial growth by resazurin dye based colorimetric analysis; assay type: functional, organism-based
Thymidylate kinase = target: T3, Thymidylate kinase (Mycobacterium tuberculosis, UniProt P9WKE1); experiment: Inhibition of Mycobacterium tuberculosis TMPK
T3 sequence (P9WKE1 whole entry): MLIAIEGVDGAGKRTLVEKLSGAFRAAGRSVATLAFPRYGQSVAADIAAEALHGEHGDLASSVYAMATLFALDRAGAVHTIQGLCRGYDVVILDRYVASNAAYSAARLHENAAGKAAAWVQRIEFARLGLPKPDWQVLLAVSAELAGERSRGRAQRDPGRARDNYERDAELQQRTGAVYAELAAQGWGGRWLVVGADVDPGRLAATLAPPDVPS

[17] = test system: Mycobacterium tuberculosis; experiment: Antibacterial activity against wild-type Mycobacterium tuberculosis H37Rv assessed as inhibition of bacterial growth; assay type: functional
[18] = test system: Mycobacterium tuberculosis; experiment: Antibacterial activity against Mycobacterium tuberculosis H37Rv assessed as inhibition of bacterial growth by broth microdilution assay; assay type: functional
Staphylococcus aureus = experiment: Antibacterial activity against methicillin-resistant Staphylococcus aureus 693E assessed as inhibition of bacterial growth by broth microdilution assay; assay type: functional
[19] = test system: Mycobacterium tuberculosis; experiment: Antibacterial activity against Mycobacterium tuberculosis assessed as inhibition of bacterial growth; assay type: functional, organism-based
[20] = test system: Mycobacterium tuberculosis; experiment: Inhibition of Mycobacterium tuberculosis H37Rv mc2 6206 HadB/C expressed in Escherichia coli using trans-2-hexadecenoyl-coenzyme A as substrate by spectrophotometric analysis
[21] = Inhibition of Mycobacterium tuberculosis H37Rv mc2 6206 HadA/B expressed in Escherichia coli using trans-2-hexadecenoyl-coenzyme A as substrate by spectrophotometric analysis

Cc1cc(C(=O)N2CCN(c3nc(=O)c4cc(F)cc([N+](=O)[O-])c4s3)CC2)c2cc(Br)ccc2n1
MIC [1]: 0.06 µg/mL

C[C@H]1S[C@]2(CC[C@@H](c3ccccc3)CC2)N(NC(=O)[C@@H](O)c2ccccc2)C1=O
MIC [1]: < 6.25 µg/mL
inhibition of growth at 6.25 µg/mL [2]: 98%

Cc1cc(C(=O)N2CCN(c3nc(=O)c4cc(C(F)(F)F)cc([N+](=O)[O-])c4s3)CC2)c2cc(Br)ccc2n1
MIC [1]: 0.12 µg/mL

COC(=O)c1cc(-c2ccc(OC)c(NC(=O)c3cc(-c4cccc(Cl)c4)nc4ccccc34)c2)on1
MIC [3]: 0.12 µg/mL (≈ 0.233 µM)

CC(=O)NC[C@H]1CN(c2ccc(N3CCOCC3)c(F)c2)C(=O)O1 [LINEZOLID]
MIC [1]: 1 µg/mL

O=C1C(C#Cc2ccccc2)=C(c2ccc(C(F)(F)F)cc2)C(=O)N1Cc1ccccn1
MIC [1]: 0.92 µg/mL
IC50 [4]: > 64 µg/mL
Activity [5]: 0.47 log10CFU
selectivity ratio [6]: 69.6

O=C(/C=C/c1cc(Cl)ccc1O)c1ccc(Br)cc1
MIC [7]: 6.25 µg/mL

C/C(=N\N=C(\N/N=C(\C)c1ccc(Cl)cc1)NC(=S)Nc1cccc2ccccc12)c1ccc(Cl)cc1
MIC [1]: 0.78 µM

CC1/C(=N\NC(N)=[Se])Nc2ccccc21 (stereo not drawn)
MIC [7]: 1.6 µg/mL

Cc1cc(C(=O)N2CCN(c3nc(=O)c4cc(Br)cc([N+](=O)[O-])c4s3)CC2)c2cc(Br)ccc2n1
MIC [1]: 0.12 µg/mL

CC(=O)c1c(C)n(-c2ccc(-c3ccccc3)cc2)c2ccc(O)c(CN3CCCCC3)c12
MIC [7]: 0.063 µg/mL
half-life at 0.1 µM [8]: 20.7 min

CC(=O)c1ccc(N2CN=c3s/c(=C/c4ccco4)c(=O)n3C2)cc1
MIC [9]: 2.49 µg/mL (≈ 7.05 µM)

O=C(N/N=C1\C(=O)N(Cc2ccccc2)c2ccccc21)c1cnc2cc(Cl)ccc2c1O
MIC [10]: 0.06 µg/mL (≈ 0.131 µM)
IC50 [11]: 36600 nM

O=c1/c(=C\c2ccc(Cl)cc2)sc2n1CN(C1=NS(=O)(=O)c3ccccc31)CN=2
MIC [9]: 2.28 µg/mL (≈ 5.12 µM)

CCOC(=O)Cc1csc(N2C(=O)CSC2c2ccc(OC)cc2)n1 (stereo not drawn)
MIC [9]: 0.12 µg/mL (≈ 0.317 µM)
IC50 [12]: 1300 nM

COc1ccc(NC(=O)CCCCCN/C(C)=C2/C(=O)C=C3Oc4c(C(C)=O)c(O)c(C)c(O)c4[C@]3(C)C2=O)cc1OC
MIC [1]: 5.3 µM

Clc1ccc(Cn2cc(COc3ccc(C4=NCCO4)cc3)nn2)cc1
IC50 [1]: 1600 nM
IC50 (DNA gyrase): 83 nM

CC(=O)c1c(C)n(-c2ccc(C3CCNCC3)cc2)c2ccc(O)c(CN3CCCCC3)c12
MIC [7]: 0.125 µg/mL
half-life at 0.1 µM [8]: 58 min

COc1ccc(-c2nn(-c3ccc([N+](=O)[O-])cc3[N+](=O)[O-])c(N)c2C#N)cc1Oc1cccc(Br)c1C#N
MIC [9]: 0.98 µg/mL (≈ 1.7 µM)
IC50 [12]: 290 nM

N#Cc1cc(OCCOc2ccccc2)cc(-c2ccc(C(=O)O)o2)c1
IC50 [13]: 12100 nM

CN1CCN(C(=O)c2cc3ccccc3[nH]2)CC1
MIC [7]: 3.12 µg/mL
growth inhibition (GI) (RAW264.7): 32%

Cc1ccc(C(=O)C2[C@H]3CCCN3[C@]3(C(=O)Nc4ccccc43)C23c2ccccc2-n2c3nc3ccccc3c2=O)cc1 (stereo partly drawn)
MIC [1]: 1.56 µg/mL

O=C1Nc2ccccc2/C1=N\OCc1cn(Cc2ccc(F)cc2)nn1
MIC [14]: 0.78 µg/mL (≈ 2.22 µM)

Cc1nc2sc3ccccc3n2c1C(=O)N1CCN(Cc2cn(-c3ccc(Cl)cc3Cl)nn2)CC1
IC90 [15]: 15200 nM
IC50 (Pantothenate synthetase): 2030 nM
IC50 [16]: 1.6 µg/mL (≈ 3.04 µM)

CC[C@@H](CO)NCCN[C@@H](CC)CO [ETHAMBUTOL]
MIC [7]: 7.64 µM and 1.6 µg/mL

Cc1cn([C@H]2C[C@H](O)[C@@H](COP(=O)(O)O)O2)c(=O)[nH]c1=O [THYMIDINE MONOPHOSPHATE]
IC50 (Thymidylate kinase): 70 nM

Cc1cc(C(=O)N2CCN(c3nc(=O)c4cc(Br)cc([N+](=O)[O-])c4s3)CC2)c2cc(Cl)ccc2n1
MIC [1]: 0.12 µg/mL

CC(C)/N=c1\cc2n(-c3ccccc3)c3ccccc3nc-2cc1Nc1ccc(N2CCN(C)CC2)c(F)c1
MIC [1]: 0.625 µg/mL
MIC [17]: 0.08 µg/mL (≈ 0.154 µM)

CCOC(=O)Cc1csc(N2C(=O)CSC2c2ccc(Br)cc2)n1 (stereo not drawn)
MIC [9]: 0.48 µg/mL (≈ 1.12 µM)
IC50 [12]: 1060 nM

CO[C@H]1C[C@@]2(C)C=C[C@H]3[C@H]4O[C@]2(/C(C)=C/[C@@H](C)[C@@H]([C@@H](C)O)OC1=O)[C@@H]3[C@H](O)[C@@H](C)[C@H]4OC(=O)c1ccc[nH]1
MIC [18]: 12.5 µM (≈ 6.62 µg/mL)
MIC (Staphylococcus aureus): 0.6 µM (≈ 0.318 µg/mL)

Cc1nc2cc(C(F)(F)F)ccc2n1-c1ncc(C(F)(F)F)s1
MIC [1]: 0.28 µM

Cc1cc(C(=O)N2CCN(c3nc(=O)c4cc(Cl)cc([N+](=O)[O-])c4s3)CC2)c2cc(Cl)ccc2n1
MIC [1]: 0.06 µg/mL

NNC(=O)c1ccncc1 [ISONIAZID]
MIC [1]: 15.6 µg/mL
MIC [7]: 1.6 µg/mL
IC50 [16]: 1.6 µg/mL (≈ 11.7 µM)

CS(=O)(=O)N1CCN(c2ccc(N3C[C@H](CNC(=O)c4ccc([N+](=O)[O-])o4)OC3=O)cc2F)CC1
MIC [1]: 1.1 µg/mL

Cc1cc(N=Nc2ccc(O)cc2O)ccc1C(C)C
IC50 [19]: 620 nM

CO[C@H]1/C=C/O[C@@]2(C)Oc3c(C)c(O)c4c(O)c(c(/C=N/N5CCN(C)CC5)c(O)c4c3C2=O)NC(=O)/C(C)=C\C=C\[C@H](C)[C@H](O)[C@@H](C)[C@@H](O)[C@@H](C)[C@H](OC(C)=O)[C@@H]1C [RIFAMPIN]
MIC [1]: 0.97 µg/mL

CCOC(=O)C1=C(C)NC(=O)NC1c1ccccc1OCc1cn(CC(=O)c2ccc(Cl)cc2)nn1 (stereo not drawn)
MIC [7]: 6.13 µM

O=C1C(Cl)=C(Cl)C2(OC(c3c(Cl)cccc3Cl)=NN2c2ccccc2)c2ccccc21 (stereo not drawn)
MIC [1]: 15.6 µg/mL

CS(=O)(=O)NC(=O)CCc1cn(-c2ccc(Br)cc2)nc1-c1ccc(Cl)cc1
inhibition [20]: inactive
IC50 [21]: 130 nM

O=C(/C=C/c1ccccc1)c1ccc(Br)cc1
MIC [7]: 6.25 µg/mL

C/C(=N\NC(=S)Nc1cccc(Cl)c1Cl)c1nc2cc([N+](=O)[O-])ccc2[nH]1
MIC [1]: 62.5 µg/mL

Cc1cc(C(=O)N2CCN(c3nc(=O)c4cc(Cl)cc([N+](=O)[O-])c4s3)CC2)c2cc(Br)ccc2n1
MIC [1]: 0.06 µg/mL

Cc1cc(C(=O)N2CCN(c3nc(=O)c4cc(C(F)(F)F)cc([N+](=O)[O-])c4s3)CC2)c2cc(Cl)ccc2n1
MIC [1]: 0.12 µg/mL

CCCCCCc1ccc(-c2cn(CC(=O)Cn3ccnc3[N+](=O)[O-])nn2)cc1
MIC [1]: 65.3 µM

O=C(Nc1ccc(C(=O)O)c(O)c1)c1cncc(Cl)n1
MIC [1]: 3.13 µg/mL

CC(C)(C)OC(=O)N1CCN(c2ccc(N3C[C@H](CNC(=O)c4ccc([N+](=O)[O-])o4)OC3=O)cc2F)CC1
MIC [1]: 2.34 µg/mL

O=C(c1ccc(Cl)cc1)C1[C@H]2CCCN2[C@]2(C(=O)Nc3ccc(Cl)cc32)C12c1ccccc1-n1c2nc2ccccc2c1=O (stereo partly drawn)
MIC [1]: 1.56 µg/mL

O=C(/C=C/c1cccc(Oc2ccccc2)c1)c1ccc(Br)cc1
MIC [7]: 6.25 µg/mL

O=C(/C=C/c1ccccc1[N+](=O)[O-])c1ccc(Br)cc1
MIC [7]: 6.25 µg/mL
